Patent US20050101595A1, “N-containing cycloalkyl-substituted amino-thiazole derivatives and pharmaceutical compositions for inhibiting cell proliferation and methods for their use” (PFIZER INC., priority 2003, published 2005)
pIC50, pKi: −log10 of the molar value. Where a name gives a salt, the structure may show the parent alone. Read-outs that look alike come from different tables or passages of the source.

Columns and labels:
CDK2/Cyclin A = CDK2/Cyclin A (Homo sapiens, UniProt P24941); assay: Inhibition of CDK2/Cyclin A Retinoblastoma Kinase Activity; assay type: biochemical; details: for pKi: apparent Ki, CDK2/proteolyzed cyclin A, Rb fragment substrate, 25 μM ATP
Procedure, shortened: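 Baculovirus-expressed CDK2 complexed with proteolyzed cyclin A (10 or 19 nM), Rb fragment substrate, 25 μM [32P/33P]ATP, HEPES pH 7.4, 30 °C for 60 or 75 min under initial-rate conditions. Filter capture and phosphorimager readout; apparent Ki fitted to competitive or tight-binding competitive inhibition.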

[1] = target: human CDK4 and genetically truncated (1-264) cyclin D3 (Homo sapiens, UniProt P11802); assay: Inhibition of CDK4/Cyclin D Retinoblastoma Kinase Activity; assay type: biochemical; details: for pKi: apparent Ki, CDK4/truncated cyclin D3, Rb fragment substrate, 25 μM ATP
human CDK4 and genetically truncated (1-264) cyclin D3, sequence (P11802 whole entry, the tested form may be a part): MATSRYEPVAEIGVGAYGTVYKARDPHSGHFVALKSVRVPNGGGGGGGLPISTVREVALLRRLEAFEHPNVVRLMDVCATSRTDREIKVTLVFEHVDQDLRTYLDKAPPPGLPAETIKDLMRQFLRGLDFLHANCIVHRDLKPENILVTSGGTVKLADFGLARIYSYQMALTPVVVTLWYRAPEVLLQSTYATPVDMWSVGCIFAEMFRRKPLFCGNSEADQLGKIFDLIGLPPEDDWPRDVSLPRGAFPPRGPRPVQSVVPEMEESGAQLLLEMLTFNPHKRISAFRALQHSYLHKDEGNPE
human CDK4 and genetically truncated (1-264) cyclin D3, sequence (P30281 1-264 partner): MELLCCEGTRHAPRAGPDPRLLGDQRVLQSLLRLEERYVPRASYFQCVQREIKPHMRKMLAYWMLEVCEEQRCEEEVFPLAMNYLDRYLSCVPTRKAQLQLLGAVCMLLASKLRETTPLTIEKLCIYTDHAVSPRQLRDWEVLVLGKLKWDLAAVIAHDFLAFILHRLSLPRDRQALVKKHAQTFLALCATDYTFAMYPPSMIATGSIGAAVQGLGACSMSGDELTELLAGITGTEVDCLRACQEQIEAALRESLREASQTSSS
Procedure, shortened: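 Human CDK4/truncated cyclin D3 (1-264) complex from baculovirus-infected insect cells, 5 nM, phosphorylating Rb fragment (residues 386-928, His-tagged) with 25 μM [32/33P]ATP in HEPES pH 7.4, MgCl2, 2% DMSO at 30° C. for 20 min (60 min for tight binders). Filter-captured radioactivity by phosphorimager; apparent Ki from competitive or tight-binding fits.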

HCT-116 cell line = assay: Inhibition of cell growth, tetrazolium salt (MTT) assay; assay type: cell-based; details: for pIC50: Homo sapiens, HCT-116, 120 h, MTT, three to five days, read-out: HCT-116 IC50; for HCT-116 % Inhibition at 0.25 μM: 0.25 μM compound
Procedure, shortened: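 Cells in McCoy's 5A medium were left 4 h, then given graded compound concentrations in 0.5% (v/v) DMSO and incubated three to five days at 37° C (5% CO2). MTT was added to 0.2 mg/mL for 4 h more; DMSO-solubilized formazan was read at 540 nm against 0.5% DMSO-only controls.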

[2] = 0.1 μM compound, HCT-116, Table 4

Structure (SMILES) | pKi (CDK2/Cyclin A) | pKi [1] | pIC50 (HCT-116 cell line; first HCT-116 column (c4)) | pIC50 (HCT-116 cell line; second HCT-116 column (c5)) | other results
Nc1nc(NC2CCN(C(=O)c3c(F)cccc3F)CC2)sc1C(=O)c1c(F)cccc1F [Example R105] |  |  |  |  | CDK2 % Inhibition at 0.03 μM (CDK2/Cyclin A; at 0.03 μM): 8%; CDK4 % Inhibition at 0.03 μM ([1]; at 0.03 μM): 9%; HCT-116 % Inhibition at 0.1 μM (HCT-116 cell line; HCT-116 cells, at 0.1 μM): 0%; HCT-116 5 Inhibition at 0.25 μM (HCT-116 cell line; HCT-116 cells): 44
CCC(C)CC(=O)N1CCC(Nc2nc(N)c(C(=O)c3c(F)cccc3F)s2)CC1 (stereo not drawn) [Example R171] |  |  |  |  | CDK2 % Inhibition at 0.03 μM (CDK2/Cyclin A; at 0.03 μM): 23%; CDK4 % Inhibition at 0.03 μM ([1]; at 0.03 μM): 39%; HCT-116 % Inhibition at 0.1 μM (HCT-116 cell line; HCT-116 cells, at 0.1 μM): 0%; HCT-116 5 Inhibition at 0.25 μM (HCT-116 cell line; HCT-116 cells): 46
CC1(C)CN(CCCS(=O)(=O)N2CCC(Nc3nc(N)c(C(=O)c4c(F)cccc4F)s3)CC2)CCN1 [Example K14, 1-(4-Amino-2-{1-[3-(3,3-dimethylpiperazin-1-yl)propane-1-sulfonyl]-piperidin-4-ylamino}-thiazol-5-yl)-1-(2,6-difluoro-phenyl)-methanone.] | 8.10 | 8.54 | 5.48 | < 5.30 | 
N#Cc1ccc(C(=O)N2CCC(Nc3nc(N)c(C(=O)c4c(F)cccc4F)s3)CC2)cc1 [Example Q60] |  |  |  |  | CDK2 % Inhibition at 0.03 μM (CDK2/Cyclin A; 0.03 μM compound, Table 4): 37%; CDK4 % Inhibition at 0.03 μM ([1]; 0.03 μM compound, Table 4): 67%; HCT-116 % Inhibition at 0.1 μM (HCT-116 cell line; [2]): 0%; HCT-116 % Inhibition at 0.25 μM (HCT-116 cell line; HCT-116, Table 4): 37%
Cc1ccc(S(=O)(=O)N[C@@H](Cc2ccccc2)C(=O)N2CCC(Nc3nc(N)c(C(=O)c4c(F)cccc4F)s3)CC2)cc1 [Example R75] |  |  |  |  | CDK2 % Inhibition at 0.03 μM (CDK2/Cyclin A; at 0.03 μM): 26%; CDK4 % Inhibition at 0.03 μM ([1]; at 0.03 μM): 13%; HCT-116 % Inhibition at 0.1 μM (HCT-116 cell line; HCT-116 cells, at 0.1 μM): 0%; HCT-116 5 Inhibition at 0.25 μM (HCT-116 cell line; HCT-116 cells): 41
Nc1nc(NC2CCN(C(=S)Oc3ccccc3)CC2)sc1C(=O)c1c(F)cccc1F [Example C6, 4-[4-Amino-5-(2,6-difluoro-benzoyl)-thiazol-2-ylamino]-piperidine-1-carbothioic Acid O-Phenyl Ester] | 8.21 | 8.10 | 6.66 | 6.05 | 
CC1(C)CN=C(c2ccc(S(=O)(=O)N3CCC(Nc4nc(N)c(C(=O)c5c(F)cccc5F)s4)CC3)cc2)N1 [Example J2, 1-(4-Amino-2-{1-[4-(5,5-dimethyl-4,5-dihydro-1H-imidazol-2-yl)-benzenesulfonyl]-piperidin-4-ylamino}-thiazol-5-yl)-1-(2,6-difluoro-phenyl)-methanone] | > 9.00 | 9.74 | 6.30 | 5.74 | 
Cn1nc(-c2ccc(S(=O)(=O)N3CCC(Nc4nc(N)c(C(=O)c5c(F)cccc5F)s4)CC3)s2)cc1C(F)(F)F [Example P44] |  |  |  |  | CDK2 % Inhibition at 0.03 μM (CDK2/Cyclin A; 0.03 μM compound, Table 3): 55%; CDK4 % Inhibition at 0.03 μM ([1]; 0.03 μM compound, Table 3): 62%; HCT-116 % Inhibition at 0.1 μM (HCT-116 cell line; 0.1 μM compound, HCT-116, Table 3): 0%; HCT-116 % Inhibition at 0.25 μM (HCT-116 cell line; HCT-116, Table 3): 25%
Nc1nc(NC2CCN(C(=O)c3ccc(-c4ccccc4)cc3)CC2)sc1C(=O)c1c(F)cccc1F [Example Q32] |  |  |  |  | CDK2 % Inhibition at 0.03 μM (CDK2/Cyclin A; 0.03 μM compound, Table 4): −11%; CDK4 % Inhibition at 0.03 μM ([1]; 0.03 μM compound, Table 4): 15%; HCT-116 % Inhibition at 0.1 μM (HCT-116 cell line; [2]): 13%; HCT-116 % Inhibition at 0.25 μM (HCT-116 cell line; HCT-116, Table 4): 54%
CN1CCC[C@H](COc2ccc(S(=O)(=O)N3CCC(Nc4nc(N)c(C(=O)c5c(F)cccc5F)s4)CC3)cn2)C1 [Example H11, 1-(4-Amino-2-{1-[6-(1-methyl-piperidin-3S-ylmethoxy)-pyridine-3-sulfonyl]-piperidin-4-ylamino}-thiazol-5-yl)-1-(2,6-difluoro-phenyl)-methanone Dihydrochloride] | 8.16 | 9.55 | 7.38 | 6.89 | 

More lines, main results first:

pKi (CDK2/Cyclin A) | pKi [1] | pIC50 (HCT-116 cell line; first HCT-116 column (c4)) | pIC50 (HCT-116 cell line; second HCT-116 column (c5)) | Structure (SMILES) | other results
> 9.00 | 9.01 | 6.52 | 6.30 | N#Cc1ccc(S(=O)(=O)N2CCC(Nc3nc(N)c(C(=O)c4c(F)cccc4F)s3)CC2)cc1 [Example F18, 4-{4-[4-Amino-5-(2,6-difluoro-benzoyl)-thiazol-2-ylamino]-piperidine-1-sulfonyl}benzonitrile] | 
9.22 | 8.72 | 6.23 | 5.66 | Nc1ccc(S(=O)(=O)N2CCC(Nc3nc(N)c(C(=O)c4c(F)cccc4F)s3)CC2)cn1 [Example G8, 1-{4-Amino-2-[1-(6-amino-pyridine-3-sulfonyl)-piperidin-4-ylamino]-thiazol-5-yl}-1-(2,6-difluoro-phenyl)-methanone] | 
